Experimental data published in US5674867A, “Indolocarbazole derivatives and therapeutic method for stimulating megakaicyocyte production” (Kyowa Hakko Kogyo Co., Ltd., priority 1992, dated 1997).
“And” between values parts separate entries of the source, which are not always exact repeats. Identical values can stand only once.

Tests used:
[1] = test system: bone marrow cells (megakaryocyte colony formation); assay: Megakaryocyte colony formation-stimulating activity (ACHE-stained colonies, bone marrow cells with IL-3); assay type: cell-based, BALB/c mouse; conditions: with IL-3 100 U/ml, 7 days
Protocol: An eight-weeks-old BALB/c mouse was killed. Its femurs and cervical vertebrae were taken out, and both end sections thereof were cut off. Bone marrow cells were collected from the pieces cut off from the femurs and cervical vertebrae using a syringe containing IMDM (430-2200EA prepared by Gibco Co.), and then blown into a test tube. The test tube was allowed to stand for 5 minutes, and the supernatant was collected with a pipet. To a reaction mixture comprising the bone marrow cells (50,000 cells), bovine serum albumin (2%: A4508 made by Sigma Co.), transferrin (600 μg/ml 652202 made by Boehringer Mannheim Co.), IL-3 (100 U/ml), cholesterol (16 μg/ml: 036-0641 made by Wako Co.) and agar (0.6%: 0142-02 made by Difco Laboratories) were separately added the test compounds at various concentrations, and 1 ml each of the mixtures was put into a 35-mm dish (Lux Co.), followed by incubation under the conditions of 37° C., 5% CO2 and a humidity of 95% or more for 7 days. Separately, IL-3 alone was added to the bone marrow cells to prepare a control, whereas a positive control was prepared by adding 200 U/ml IL-6 to the above-mentioned reaction mixture. After the incubation was completed, the agar was dried over a filter paper (1001-055 made by Whatman Co.) and then fixed with 2.5% glutaraldehyde, followed by acetylcholinesterase staining (ACHE staining).
The ACHE staining was carried out by the method described below.
ACHE staining: To each sample was added a solution comprising 0.67 mg/ml acetylthiocholine iodide, 2.94 mg/ml sodium citrate, 7.5 mg/ml copper (II) sulfate and 1.65 mg/ml potassium ferricyanide, and the mixture was allowed to stand at room temperature in the dark for 4-6 hours.
A group of 4 or more megakaryocytes which were stained reddish brown was regarded as a colony, and the number of colonies per dish was calculated using a microscope. The results are shown in Table 2 as relative values to the control.

Acute toxicity test = conditions: mouse, in vivo, ip; male DDY mice, intraperitoneal, survival after 24 hours; read-out: LD50 (50% survival dose)
Protocol: To 6-weeks-old male DDY mice (3 per group) was intraperitoneally administered 0.2 ml of a solution of a test compound in a phosphate-buffered physiological saline. The 50% survival doses (LD50) were calculated from the survival rate after 24 hours. The LD50 for Compounds I-1, 17, 25, 26, 30-33, 35, 40 and 52 was >1 mg/kg, while that for all the other compounds was >30 mg/kg.

platelets = assay: Platelet production-stimulating activity in mice; assay type: in vivo, BALB/c mice; conditions: 7.5 mg/kg/day × 5, caudal vein; for Number of platelets, individual mouse: 7.5 mg/kg/day
Protocol: BALB/c mice (male, 7-weeks-old) were divided into 2 groups. To one group (control group) was administered a solvent (1% lactic acid, 4% aqueous solution of glucose) alone. On the other hand, the test group (Compound I-1-administered group) received 0.2 ml of a solution of Compound I-1 in the above solvent at a dose of 7.5 mg/kg via the caudal vein once a day for 5 days (Day 1-Day 5). On the day before the administration (Day 0) and the seventh day after the start of administration (Day 7), the ninth day (Day 9), the 14th day (Day 14) and the 21st day (Day 21), 20 μl of blood was collected from the fundus oculi vein of the mice of each group, and the number of the platelets was counted with a microcell counter (Type CC-180A made by Toa Iryo Denshi Co.).

| Molecule | Relative value (megakaryocyte colonies, control = 100) ([1]; 1 nM) | LD50 at 24 h (Acute toxicity test) [mg/kg] | Relative value (megakaryocyte colonies, control = 100) ([1]; 0.1 nM) | Relative value (megakaryocyte colonies, control = 100) ([1]; 10 nM) | also measured |
| --- | --- | --- | --- | --- | --- |
| CNC1CC2OC(C)(C1OC)n1c3ccccc3c3c4c(c5c6ccccc6n2c5c31)C(=O)NC4O (centres unmarked) [Compound I-1] | 127 | > 1 | – | – | Number of platelets, individual mouse (platelets; Day 0 (day before administration)): 92.6 × 10^4 /mm^3 and 90.5 × 10^4 /mm^3 and 94.2 × 10^4 /mm^3 and 117.6 × 10^4 /mm^3 and 111.7 × 10^4 /mm^3 and 95.5 × 10^4 /mm^3; Number of platelets (Average) (platelets; Day 0 (day before administration), control average 110.9): 100.4 × 10^4 /mm^3; % Relative value (number of platelets, Day 0 = 100) (platelets; Day 0, control 100): 100%; Number of platelets, individual mouse (platelets; Day 7): 103.1 × 10^4 /mm^3 and 91.8 × 10^4 /mm^3 and 119.4 × 10^4 /mm^3 and 155.7 × 10^4 /mm^3 and 136.3 × 10^4 /mm^3 and 111.2 × 10^4 /mm^3; % Relative value (number of platelets, Day 0 = 100) (platelets; Day 7, control 120.3): 119.1%; Number of platelets (Average) (platelets; Day 7, control average 133.4): 119.6 × 10^4 /mm^3; Number of platelets, individual mouse (platelets; Day 9): 125.3 × 10^4 /mm^3 and 160.0 × 10^4 /mm^3 and 144.5 × 10^4 /mm^3 and 136.1 × 10^4 /mm^3 and 146.8 × 10^4 /mm^3; % Relative value (number of platelets, Day 0 = 100) (platelets; Day 9, control 103.2): 144.9%; Number of platelets (Average) (platelets; Day 9, control average 114.5): 145.5 × 10^4 /mm^3; Number of platelets, individual mouse (platelets; Day 14): 125.3 × 10^4 /mm^3 and 106.4 × 10^4 /mm^3 and 121.1 × 10^4 /mm^3 and 145.4 × 10^4 /mm^3 and 112.3 × 10^4 /mm^3 and 115.0 × 10^4 /mm^3; % Relative value (number of platelets, Day 0 = 100) (platelets; Day 14, control 98.4): 120.4%; Number of platelets (Average) (platelets; Day 14, control average 109.1): 120.9 × 10^4 /mm^3; Number of platelets, individual mouse (platelets; Day 21): 133.9 × 10^4 /mm^3 and 202.7 × 10^4 /mm^3 and 153.0 × 10^4 /mm^3 and 139.6 × 10^4 /mm^3 and 135.5 × 10^4 /mm^3 and 163.9 × 10^4 /mm^3; % Relative value (number of platelets, Day 0 = 100) (platelets; Day 21, control 103.1): 154.2%; Number of platelets (Average) (platelets; Day 21, control average 114.3): 154.8 × 10^4 /mm^3 |
| CNC1CC2OC(C)(C1OC)n1c3ccccc3c3c4c(c5c6cc(C(C)=O)ccc6n2c5c31)C(=O)NC4 (centres unmarked) [Compound I-30] | 119 | > 1 | 111 | 117 | – |
| COC(=O)C1(O)CC2OC1(C)n1c3ccccc3c3c4c(c5c6ccccc6n2c5c31)C(=O)NC4 (centres unmarked) [Compound I-35, K-252a] | – | > 1 | – | – | Relative value (megakaryocyte colonies, control = 100) ([1]; 1.0 pM): 130; Relative value (megakaryocyte colonies, control = 100) ([1]; 10 pM): 140 |
| CNC1CC2OC(C)(C1OC)n1c3ccc(C=O)cc3c3c4c(c5c6cc(C=O)ccc6n2c5c31)C(=O)NC4 (centres unmarked) [Compound I-32] | 94 | > 1 | 76 | 109 | – |
| CNC1CC2OC(C)(C1OC)n1c3ccc(C(C)=O)cc3c3c4c(c5c6cc(C(C)=O)ccc6n2c5c31)C(=O)NC4 (centres unmarked) [Compound I-31] | 94 | > 1 | 76 | 109 | – |
| COC1C(N(C)C)CC2OC1(C)n1c3ccccc3c3c4c(c5c6ccccc6n2c5c31)C(=O)NC4 (centres unmarked) [Compound I-25] | 124 | > 1 | 119 | 100 | – |
| COC(=O)C1(O)CC2OC1(C)n1c3ccccc3c3c4c(c5c6cc(S(=O)(=O)N7CCN(C)CC7)ccc6n2c5c31)C(=O)NC4 (centres unmarked) [Compound I-11] | 95 | – | 88.4 | 116 | – |
| CCCOc1ccc2c(c1)c1c3c(c4c5ccccc5n5c4c1n2C1CC(NC)C(OC)C5(C)O1)CNC3=O (centres unmarked) [Compound I-33] | 114 | > 1 | 101 | 105 | – |
| CCCN(C)C1CC2OC(C)(C1OC)n1c3ccccc3c3c4c(c5c6ccccc6n2c5c31)C(=O)NC4 (centres unmarked) [Compound I-26] | 121 | > 1 | 108 | 111 | – |
| IL-6: hematopoietic factor which stimulates the production of blood platelets; positive control | – | – | – | – | Relative value (megakaryocyte colonies, control = 100) ([1]; 200 U/ml, positive control): 117 |
| CNC1CC2OC(C)(C1OC)n1c3ccccc3c3c4c(c5c6cc(O)ccc6n2c5c31)C(=O)NC4 (centres unmarked) [Compound I-52] | – | > 1 | – | – | – |
| CN[C@@H]1C[C@H]2O[C@@](C)([C@@H]1OC)n1c3ccccc3c3c4c(c5c6ccccc6n2c5c31)C(=O)NC4 [Compound I-17, staurosporine] | – | > 1 | – | – | Relative value (megakaryocyte colonies, control = 100) ([1]; 1.0 pM): 119; Relative value (megakaryocyte colonies, control = 100) ([1]; 10 pM): 107 |
| CNC1CC2OC(C)(C1OC)n1c3ccccc3c3c4c(c5c6ccccc6n2c5c31)C(=O)N(C)C4=O (centres unmarked) [Compound I-9] | 117 | – | 135 | 92.2 | – |
| COC(=O)C1(OC)CC2OC1(C)n1c3ccc(Br)cc3c3c4c(c5c6cc(Br)ccc6n2c5c31)C(=O)NC4 (centres unmarked) [Compound I-40] | 125 | > 1 | 109 | 114 | – |
